In paper PMC12024814, “Ruthenium(II)–Arene Complexes with a 2,2′-Bipyridine Ligand as Anti-Aβ Agents” (Biomolecules, 2025):

Tests used:
[1] = target: T1, human serum albumin (HSA) (Homo sapiens, UniProt P02768); test: Protein binding assay, warfarin (WF) displacement, Sudlow site I; settings: warfarin probe, Stern–Volmer slope, HSA and WF 2.5 μM, PBS
T1 construct: purchased Sigma Aldrich
Description: A stock of human serum albumin (HSA, 100 μM) was prepared using PBS, while the probes dansyl glycine (DG) and warfarin (WF) were prepared by initially dissolving them in DMSO and diluting them with PBS until the concentration of DMSO was less than 5%. Solutions of each Ru complex were prepared by initial dissolution in DMSO and subsequent dilution using PBS until the concentration of DMSO was less than 5%. The total volume of each sample was 3.5 mL, where the concentration of HSA and DG/WF was 2.5 μM throughout the experiment. The Ru concentration ranged from 0 μM to 62.5 μM, with an increase of 12.5 μM for each sample. In total, six samples were prepared for each protein binding assay. After preparation, the samples were placed on an IKA Trayster inversion mixer (60 rpm) for 30 s and incubated at approximately 28 °C in a Neslab gp-200 for 15 min, before being placed back on the inversion mixer (60 rpm) for 30 s. All fluorescence measurements for the protein binding assay were made using a PTI QuantiMaster 50, and the samples were measured at room temperature with conditions respective to the probe.
One important consideration for a potential AD therapeutic is its interaction with serum proteins, specifically albumin (HSA). […] To determine the potential association of the prepared Ru complexes with HSA, a protein binding assay was performed. For these studies, the displacement of two fluorometric probes was used to determine the relative affinity of the Ru complexes for two of the established binding sites on HSA. The first probe, warfarin (WF), an anticoagulant, binds selectively to Sudlow site I on HSA [55], while the second probe used was dansyl glycine (DG), which selectively binds to Sudlow site II on HSA [56]. As these are the two major binding sites on the protein, the probes allow for observations of binding events that occur within these hydrophobic pockets. Individually, the probes were initially mixed with HSA, followed by increasing amounts of the respective Ru complexes, whereby the decrease in fluorescence signals from the respective probes (Figures S22–S30) was used to construct a Stern–Volmer plot, where the slope of the line represents the conditional binding constant (K’) for the respective Ru complexes to each site (Figure 8).

[2] = Log D7.4 (1-octanol/PBS shake method, absorbance); assay type: physicochemical; settings: 1-octanol/PBS pH 7.4, 50 μM, 2 h mixing at room temperature
Description: A stock solution was prepared from each Ru complex using dimethyl sulfoxide (DMSO), then diluted to 6 mL and a concentration of 50 μM using phosphate-buffered saline (PBS, pH 7.4), where the final DMSO concentration was less than 5%. The absorbance spectra were measured, then 6 mL of 1-octanol was added, and the resulting biphasic sample was mixed at room temperature for 2 h using an IKA Trayster inversion mixer (60 rpm). Following this, the aqueous layer was extracted, and its absorbance spectra were measured. Log D values were determined using the equation below: LogD7.4=logAbs @ λmax before mixing/Abs @ λmax after mixing−1
The ability of Aβ-targeting therapeutics to cross the blood–brain barrier (BBB) is essential for their success. […] For predicting passage across the BBB, one metric that is used is the n-octanol/water partition coefficient of the molecule (log P). For Ru therapeutics, pH can play an important role in the speciation and stability of the complex; therefore, the determination of log D was performed. For such an analysis, the complexes were initially dissolved in DMSO, then diluted using PBS. After initial absorption measurements, the aqueous samples were mixed with an equal volume of 1-octanol for 2 h. The short mixing time is necessary to minimize any ligand exchange that may occur (vide infra), while still providing an accurate value for the partitioning. […] To the best of our knowledge, the partitioning for these complexes has not been evaluated previously, while the values obtained are similar to previous Ru(II)–arene complexes with bidentate ligands.

[3] = target: T2, Aβ40 (Homo sapiens, UniProt P05067); test: Dynamic light scattering (DLS) of ThT assay samples; assay type: biochemical; settings: for DLS prominent peak particle size / DLS minor feature share of the total spectrum / DLS minor feature particle size: Aβ40 co-incubated with complex 6 h; for DLS prominent peak particle size: PBS pH 7.4, 37 °C, Aβ40 alone around 340 nm; for DLS minor feature share of the total spectrum: Aβ40 alone 13 percent; for DLS minor feature particle size: Aβ40 alone 78 nm; for Ranking DLS: scale 1 to 5 (1 = best, 5 = worst)
T2 construct: Lyophilized Aβ40 was monomerized following previous procedures; purchased GenScript
Description: Samples were extracted from the ThT assay plate for DLS analysis. A 125 μL sample was placed into a 1 mL syringe and injected through a syringe filter (pore size: 0.2 μm), into a 0.5 mL microcentrifuge tube. The filtrate was added to a microvolume polystyrene cuvette and placed into a Malvern Zetasizer Nano ZSP to measure the DLS spectra. Measurements are represented as an average of percent intensity through several runs determined by Zetasizer software Version 7.13.1.
Samples for DLS analysis were taken directly from the ThT assay following its completion. This allowed for a comparison between both data sets, to determine if a correlation for activity between the complexes could be established. For the Aβ40 peptide alone, a prominent peak around 340 nm was observed, while following treatment with the respective Ru complexes, a discernable shift to smaller particle sizes was unanimously observed (Figure 6).

T2 sequence (P05067 672-711 limits assumed): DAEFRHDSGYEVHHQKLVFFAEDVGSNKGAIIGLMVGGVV
T1 sequence (P02768 25-609): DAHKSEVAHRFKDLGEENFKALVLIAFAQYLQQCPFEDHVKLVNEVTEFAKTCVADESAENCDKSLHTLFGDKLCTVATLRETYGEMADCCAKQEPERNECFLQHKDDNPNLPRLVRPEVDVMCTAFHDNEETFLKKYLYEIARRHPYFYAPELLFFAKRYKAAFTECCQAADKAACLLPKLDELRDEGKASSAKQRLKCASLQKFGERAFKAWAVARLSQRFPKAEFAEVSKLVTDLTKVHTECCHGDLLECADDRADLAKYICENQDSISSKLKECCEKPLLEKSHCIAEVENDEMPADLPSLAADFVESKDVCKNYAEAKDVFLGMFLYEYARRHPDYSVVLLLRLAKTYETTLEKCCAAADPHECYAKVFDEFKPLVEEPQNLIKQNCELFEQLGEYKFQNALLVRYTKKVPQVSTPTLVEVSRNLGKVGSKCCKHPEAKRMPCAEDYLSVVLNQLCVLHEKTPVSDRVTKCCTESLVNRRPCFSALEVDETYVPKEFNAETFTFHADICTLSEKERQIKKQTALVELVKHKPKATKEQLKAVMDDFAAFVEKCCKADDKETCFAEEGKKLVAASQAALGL

| Compound | Log K (WF), conditional binding constant to serum albumin [1] | Log D7.4 [2] | DLS prominent peak particle size [3] | DLS minor feature share of the total spectrum [3] | DLS minor feature particle size [3] | Ranking DLS [3] |
| --- | --- | --- | --- | --- | --- | --- |
| [Ru(η^6-p-cymene)(4,4′-diamino-2,2′-bipyridine)Cl]PF6 [RuBA] | 4.38 | −0.55 ± 0.03 | 231 nm | 3% | 42 nm | 4 |
| [Ru(η^6-p-cymene)(4,4′-di-tert-butyl-2,2′-bipyridine)Cl]PF6 [RuBtB] |  | 0.84 ± 0.03 | 264 nm | 4% | 53 nm | 5 |
| Cc1ccc(C(C)C)cc1.F[P-](F)(F)(F)(F)F.[Cl-].[Ru+2].c1ccc(-c2ccccn2)nc1 [RuB, [Ru(η^6-p-cymene)(2,2′-bipyridine)Cl]PF6] | 4.24 | −1.90 ± 0.15 | 227 nm | 4% | 21 nm | 3 |
| Cc1ccc(C(C)C)cc1.Cc1ccnc(-c2cc(C)ccn2)c1.F[P-](F)(F)(F)(F)F.[Cl-].[Ru+2] [RuBMe, [Ru(η^6-p-cymene)(4,4′-dimethyl-2,2′-bipyridine)Cl]PF6] | 4.56 | −0.99 ± 0.13 | 214 nm | 2% | 24 nm | 1 |
| [Ru(η^6-p-cymene)(4,4′-dimethoxy-2,2′-bipyridine)Cl]PF6 [RuBMeO] | 4.00 | −0.74 ± 0.08 | 239 nm | 11% | 32 nm | 2 |
